PubChem BioAssay (NCI)
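Where inhibition never reached the appropriate level, the endpoint shown equals the highest concentration tested. Otherwise, values were interpolated linearly from a five-concentration, 48-hour dose response in 96-well plates. GI50 marks 50% less growth. TGI marks complete inhibition of growth.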

Tests used:
Test in all cases: NCI-60 cell line screen, 48 h
[1] = system: M14 melanoma
[2] = system: MDA-MB-231 breast
[3] = system: PC-3 prostate
[4] = system: OVCAR-4 ovarian
[5] = system: COLO 205 colon
[6] = system: SK-OV-3 ovarian
[7] = system: SNB-75 CNS
[8] = system: MOLT-4 leukemia
[9] = system: NCI-H460 lung
[10] = system: NCI/ADR-RES ovarian
[11] = system: SK-MEL-2 melanoma
[12] = system: SW-620 colon
[13] = system: SF-295 CNS
[14] = system: NCI-H226 lung
[15] = system: UACC-257 melanoma
[16] = system: K-562 leukemia
[17] = system: UACC-62 melanoma
[18] = system: EKVX NSCLC
[19] = system: IGROV1 ovarian
[20] = system: KM12 colon
[21] = system: BT-549 breast
[22] = system: TK-10 renal
[23] = system: MDA-MB-435
[24] = system: NCI-H23 lung
[25] = system: SF-268 CNS
[26] = system: MCF7 breast
[27] = system: HL-60(TB) leukemia
[28] = system: ACHN renal
[29] = system: OVCAR-8 ovarian
[30] = system: NCI-H522 lung
[31] = system: T-47D breast
[32] = system: A549 NSCLC
[33] = system: OVCAR-3 ovarian
[34] = system: LOX IMVI melanoma
[35] = system: SF-539 CNS
[36] = system: HCT-15 colon
[37] = system: SN12C renal
[38] = system: DU-145 prostate
[39] = system: 786-0 renal
[40] = system: HOP-62 NSCLC
[41] = system: HS 578T breast
[42] = system: UO-31 renal
[43] = system: U251 CNS
[44] = system: RXF 393 renal
[45] = system: OVCAR-5 ovarian
[46] = system: HCC-2998 colon
[47] = system: CCRF-CEM leukemia
[48] = system: CAKI-1 renal
[49] = system: HT29 colon
[50] = system: HCT-116 colon
[51] = system: SNB-19 CNS
[52] = system: A498 renal
[53] = system: HOP-92 NSCLC
[54] = system: RPMI-8226 leukemia
[55] = system: MALME-3M melanoma
[56] = system: SK-MEL-28 melanoma

COc1ccc(-c2nc(S(=O)(=O)c3ccccc3)c(S(=O)CC(=O)N3CCC(C)CC3)o2)cc1 (configuration not stated)
GI50 [1]: 1890 nM | TGI [1]: 4.21 µM | GI50 [2]: 1910 nM | TGI [2]: 4.08 µM | GI50 [3]: 3.55 µM | TGI [3]: 15.7 µM | GI50 [4]: 3.31 µM | TGI [4]: 13 µM | GI50 [5]: 2040 nM | TGI [5]: 3.86 µM | GI50 [6]: 12.9 µM | TGI [6]: 26.5 µM | GI50 [7]: 4.16 µM | TGI [7]: 15.2 µM | GI50 [8]: 2090 nM | TGI [8]: 5.71 µM | GI50 [9]: 5.95 µM | TGI [9]: 20.6 µM | GI50 [10]: 3.1 µM | TGI [10]: 12 µM | GI50 [11]: 3.19 µM | TGI [11]: 9.83 µM | GI50 [12]: 1730 nM | TGI [12]: 4.36 µM | GI50 [13]: 6.44 µM | TGI [13]: 19.4 µM | GI50 [14]: 2370 nM | TGI [14]: 6.25 µM | GI50 [15]: 2100 nM | TGI [15]: 5.05 µM | GI50 [16]: 198 nM | TGI [16]: 3.03 µM | GI50 [17]: 1670 nM | TGI [17]: 3.6 µM | GI50 [18]: 3.69 µM | TGI [18]: 13.7 µM | GI50 [19]: 2170 nM | TGI [19]: 6.27 µM | GI50 [20]: 4.72 µM | TGI [20]: 16.7 µM | GI50 [21]: 1730 nM | TGI [21]: 3.77 µM | GI50 [22]: 1910 nM | TGI [22]: 3.85 µM | GI50 [23]: 2550 nM | TGI [23]: 6.56 µM | GI50 [24]: 3.12 µM | TGI [24]: 12.1 µM | GI50 [25]: 3.78 µM | TGI [25]: 14.9 µM | GI50 [26]: 1450 nM | TGI [26]: 3.44 µM | GI50 [27]: 1610 nM | TGI [27]: 8.35 µM | GI50 [28]: 1680 nM | TGI [28]: 3.13 µM | GI50 [29]: 2440 nM | TGI [29]: 6.59 µM | GI50 [30]: 1440 nM | TGI [30]: 3.39 µM | GI50 [31]: 1710 nM | TGI [31]: 4.09 µM | GI50 [32]: 7.59 µM | TGI [32]: 21.1 µM | GI50 [33]: 1330 nM | TGI [33]: 2740 nM | GI50 [34]: 1720 nM | TGI [34]: 3.25 µM | GI50 [35]: 1800 nM | TGI [35]: 3.52 µM | GI50 [36]: 1270 nM | TGI [36]: 2860 nM | GI50 [37]: 1900 nM | TGI [37]: 3.6 µM | GI50 [38]: 1370 nM | TGI [38]: 2720 nM | GI50 [39]: 1920 nM | TGI [39]: 4.05 µM | GI50 [40]: 8.12 µM | TGI [40]: 21 µM | GI50 [41]: 5.86 µM | TGI [41]: 27 µM | GI50 [42]: 1260 nM | TGI [42]: 2570 nM | GI50 [43]: 3.06 µM | TGI [43]: 10.6 µM | GI50 [44]: 1680 nM | TGI [44]: 3.25 µM | GI50 [45]: 2990 nM | TGI [45]: 8.58 µM | GI50 [46]: 14 µM | TGI [46]: 28.8 µM | GI50 [47]: 2820 nM | TGI [47]: 8.63 µM | GI50 [48]: 2280 nM | TGI [48]: 6.7 µM | GI50 [49]: 2580 nM | TGI [49]: 10.1 µM | GI50 [50]: 1720 nM | TGI [50]: 3.2 µM | GI50 [51]: 6.43 µM | TGI [51]: 19.1 µM | GI50 [52]: 2460 nM | TGI [52]: 9.79 µM | GI50 [53]: 1620 nM | TGI [53]: 3.63 µM | GI50 [54]: 1250 nM | TGI [54]: 4.02 µM | GI50 [55]: 1940 nM | TGI [55]: 3.67 µM | GI50 [56]: 2150 nM | TGI [56]: 4.36 µM
